Reference: patent publication US20250387298A1, “FLEXIBLE MEDICAL CONTAINER” (B. Braun Melsungen AG, priority 2024, published 2025)
Like-named read-outs stand apart in the source and are kept apart here. Marks after values point to notes of the source that are not given here.

Experiment: Simulating experiments: Pip-Taz powder incubated with potential impurities in glass vials, turbidity after reconstitution
Assay type: physicochemical
Experimental: In order to mimic and evaluate the impact of Ti, Al, Sn, Ni, Mg, Cr, and Si containing impurities on the turbidity of piperacillin and tazobactam formation, the following simulating experiments were carried out (reference 6.7, Notebook BB5254/125, 134, 140-141, 145-146). Powders of piperacillin and tazobactam were mixed with different potential impurities in glass vials and incubated at 40° C. for 3 weeks. […] [table]

[1] = 40° C. for 3 weeks in glass vial, 0.3 g Pip-Taz with 1-2 mg chemical, reconstituted in 12 mL 0.9% NaCl
[2] = 40° C. for 3 weeks, chemical without drug, 0.9% NaCl
[3] = Drug & Chemicals minus Chemical only, 40° C. for 3 weeks
[4] = conclusion from Table 2, by metal/element of the impurity

Compound	Turbidity Delta	Turbidity, Chemical only (~100 ppm)	Turbidity, Drug & Chemicals (Target Mole Ratio = 100:1, ~100 ppm for chemicals)	Turbidity, Drug & Chemicals (Target Mole Ratio = 100:1, ~100 ppm for chemicals) [1]	Turbidity, Chemical only (~100 ppm) [2]	Turbidity Delta [3]	impact on the turbidity of piperacillin and tazobactam [4]	Turbidity, Drug & Chemicals	impact on the turbidity of piperacillin and tazobactam
CC(=O)[O-].CC(=O)[O-].CC(=O)[O-].CC(=O)[O-].[Sn+4] [tin (IV) acetate]	1.04	0.08	1.13						
aluminum chloride hydrate				3.01	0.13	2.88	substantial effect		
CC(=O)[O-].CC(=O)[O-].[Fe+2] [iron(ll) acetate]				98.77	9.66	89.10			
CC(=O)/C=C(/C)[O-].CC(=O)/C=C(/C)[O-].[O]=[Ti+2] [titanium (IV) oxyacetylacetonate]				179.33	5.44	173.89	substantial effect		
O[Si](O)(O)C1CCCCC1 [Cyclohexyl-dihydroxyl-hydroxylsilane]				18.20	0.54	17.66	substantial effect		
O=S(=O)([O-])[O-].[Mg+2] [magnesium sulfate]								1.53*	no impact
O.O.O.O.O.O.[Cl][Cr]([Cl])[Cl] [chromium (Ill) chloride hexahydrate]				15.60	0.18	15.42			
